According to US7662767B2, “Polynucleotide intercalator interceptors and inhibitors” (Materials Evolution and Development USA, Inc., priority 2000, dated 2010):
Values joined by “and” are separate entries in the source; they are usually repeats but may differ in a detail not shown here. Equal entries are not always repeated.

How the values were obtained:
[1] = Acridine orange self-association (AO-AO dimer), spectrofluorometry λem 530 nm; assay type: binding; conditions: hydrochloride
Procedure: Association constants were calculated using a modification of an equation described by Zaini et al. (1999) to determine equilibrium constants for weakly bound complexes by absorbance spectrophotometry. By definition K=Xd/(Xm* Xm), where K is the binding constant Kassoc, Xd is the concentration of the AO dimer and Xm is the concentration of the AO monomer. Conservation of mass gives Xt=Xm+2*Xd, where Xt is the total concentration of AO in solution. Rearranging the conservation of mass equation gives Xm=Xt−2*Xd, and substituting into the equation for Kassoc and rearranging gives Equation 4: Kassoc(Xt*Xt−4*Xt*Xd+4*Xd*Xd)−Xd=0 EQUATION 4:
Rearranging gives: Xd*Xd−(Xt+1/(4*.Kassoc)*Xd+Xt*Xt/4=0 EQUATION5:
Applying the quadratic formula (X=[−B±SQRT(B^2−4AC]/2A) to Equation 3-5 and taking a physically reasonable root gives Equation 3-6: Xd=[Xt+1/(4*K)−SQRT(Xt/(2*K)+1/[…])]/2 EQUATION 6:
Where SQRT ( ) indicates taking the square root of the content of the parentheses. The fluorescence values at λem 530 nm (F530) is a function of Xt and F530=Xd*ε, where “ε” is the fluorescence yield of the dimer. The equation was solved by non-linear least squares using Prism™ software and binding constants determined. Concentrations of the reactants were adjusted for dilution whereas AO concentrations are reported without adjustment for dilution. Fluorescence values (fi) are reported as raw data normalized to scale and not adjusted by a dilution factor following aliquot additions. Absorbance data taken at 468 nm was also used to calculate the Kassoc for the AO-AO dimer using Equation 6.
The error bars shown standard deviation unless obscured by legend symbols (n=4). The results also indicate the effect of a physiological concentration of NaCl [150 mM] on the fluorescence of AO at both λem 530 nm (green) and λem 635 nm (red) over a range of AO concentrations from 0.5 μM to 10.0 μM. At an AO concentration of between 5-6 μM, the amplitude of green fluorescence at λem 530 nm increases abruptly. The red fluorescence (λem 635 nm) also increases abruptly between 5-6 μM. However, the magnitude of the increase at λem 635 nm is proportionally less than that found at λem 530 nm. As the concentration of AO increases from 5 μM to 6 μM, the mean fluorescence values were changed from 457±16 to 5,197 ±289 at λem 530 nm and from 174±4 to 1,371±41 at λem 635 nm (n=4). […] The example shown in FIG. 3-2B depicts the binding plot calculated at λem 530 nm for the molecular association of AO with itself in the absence of and in the presence of NaCl. The association constants (Kassoc) for AO derived from these two plots are 118,000±16,120 M^−1 (R^2=0.98) in the presence of NaCl [150 mM] and 37,410±4,758 M^−1(R^2=0.97) in the absence of NaCl. Error bars denote standard deviation unless hidden by legend symbols (n=4). The presence of 150 mM NaCl has no significant effect on the fluorescence intensity of AO at either λem 530 nm or λem 635 nm at AO concentrations of 6 μM and above.
Association constants were calculated for AO self-association by assuming the fluorescence values derived at λem 530 nm reflect the extent of dimer formation. Association constants (Kassoc) were calculated from the change in mean fluorescence values (delta fluorescence) at λem 530 nm (see FIG. 3-2B). At AO concentrations from 0.5 μM to 5 μM, Kassoc was determined to be 37,410±4,758 M^−1 (R^2=0.97) in the absence of NaCl and 118,000±16,120 M^−1 (R^2=0.98) in the presence of 150 mM NaCl (see FIG. 3-2B). For AO concentrations >5 μM, the association constants were determined to be 46,700±1,807 M^−1 (R^2=0.99) for AO alone and 41,820±3,671 M^−1 (R^2=0.99) for AO in the presence of NaCl. This indicates a significant AO concentration dependent difference in the association constant in the presence of 150 mM NaCl at low AO concentrations (<5 μM) but not a significant difference at AO concentrations above 5 μM.

[2] = tested on: herring sperm dsDNA; assay: Acridine orange titrated with dsDNA, absorbance; assay type: binding; conditions: AO-DNA
Excerpt: Experiments were undertaken to characterize the interaction of AO with DNA over a range of DNA base pairs (bp) to AO ratios in the absence of, and in the presence of, a physiological concentration of NaCl. […] The example shown in FIG. 3-6 is a dsDNA bp: AO ratio of selected spectra denoting important transitions within the titration series are denoted with bolder lines. Some of the spectral series is not shown to simplify the data presentation. At bp: AO ratios between 0.0 and 0.75, prevalent peaks occur at 8abs of 468 nm and 492 nm. […] The absorbance spectra from bp: AO ratios above 0.75 denote a definitive red-shift in absorbance with the simultaneous creation of two distinct peaks, one at 475 nm and the other at 503 nm. With continued additions of aliquots of DNA, the absorbance peak near 468 nm is still apparent while the initial main absorbance peak at 492 nm is minimally detectable. […] Additionally, at bp:AO ratios of about 1.72. The absorbance peak near λabs 503 nm increased in amplitude with each additional aliquot of DNA. […] The association constant was calculated from a plot of delta absorbance values at 504 nm versus DNA concentration (see inset FIG. 3-7). The DNA concentrations ranged from 30:M to 170:M.

For `CN(C)c1ccc2cc3ccc(N(C)C)cc3nc2c1.Cl` [AO, 3,6-bis[dimethylamino]acridine hydrochloride], the “K ± S.D.” value ([1]; Fluorescence plus NaCl 150 mM, AO [0.5-5.0 μM]) was 118,000±16,120 M^−1 and 118,000 M^−1, the “K ± S.D.” value ([1]; Fluorescence plus NaCl 150 mM, AO [0.5-5.0 μM], listed as AO-AO) was 118,000 ± 16,120 M^−1 and the “K ± S.D.” value ([1]; Fluorescence plus NaCl, AO [6.0-10.0 μM]) was 41,820±3,671 M^−1. For the same molecule, the “K ± S.D.” value ([1]; Fluorescence plus NaCl, AO [6.0-10.0 μM], listed as AO-AO) was 41,820 ± 3,671 M^−1, the “K ± S.D.” value ([1]; Fluorescence, AO [0.5-5.0 μM], absence of NaCl) was 37,410±4,758 M^−1 and 37,410 M^−1 and the “K ± S.D.” value ([1]; Fluorescence, AO [0.5-5.0 μM], absence of NaCl, listed as AO-AO) was 37,410 ± 4,758 M^−1. The “K ± S.D.” value ([1]; Fluorescence, AO [6.0-10.0 μM], absence of NaCl) was 46,700±1,807 M^−1, the “K ± S.D.” value ([1]; Fluorescence, AO [6.0-10.0 μM], absence of NaCl, listed as AO-AO) was 46,700 ± 1,807 M^−1 and the “K ± S.D.” value ([2]; Absorbance (504 nm), AO [3 μM], DNA [5-170 μM], hydrochloride) was 37,660±431 M^−1. The “K ± S.D.” value ([2]; Absorbance (504 nm), AO [3 μM], DNA [5-170 μM], listed as AO-DNA, hydrochloride) was 37,660 ± 431 M^−1, the “K ± S.D.” value ([2]; Absorbance, AO [0.1-3 μM], DNA [100 μM]) was 33,510 ± 285 M^−1 and the “K ± S.D.” value ([2]; Absorbance, AO [0.8-3.4 μM], DNA [20 μM]) was 31,960 ± 316 M^−1.
